According to patent US9357773B2, “Herbicidal agents containing aclonifen” (BAYER CROPSCIENCE AKTIENGESELLSCHAFT, priority 2012, dated 2016):

How the values were obtained:
[1] = tested on: Lolium spp. resistant to HRAC group A; experiment: Greenhouse trial, post-emergence action against resistant ryegrass biotype (HRAC group A); type: in vivo; conditions: post-emergence (PO, BBCH 11), about 3 weeks after application
Protocol: (§1) In the standard design of the test, seeds of various broad-leaved weed and weed grass biotypes (origins) were sown in a 8-13 cm diameter pot filled with natural soil of a standard field soil (loamy silt; non-sterile) and covered with a covering soil layer of about 1 cm. The pots were then cultivated in a greenhouse (12-16 h light, temperature day 20-22° C., night 15-18° C.) until the time of application. The pots were treated on a laboratory track sprayer with spray liquors comprising the compositions according to the invention, mixtures of the prior art or components used individually. Application of the active compounds or active compound combinations formulated as WG, WP, EC or otherwise was carried out at the appropriate growth stages of the plants. The amount of water used for spray application was 100-600 l/ha. After the treatment, the plants were returned to the greenhouses.
(§2) About 3 weeks after the application, the soil action or/and foliar action was assessed visually according to a scale of 0-100% in comparison to an untreated comparative group: 0%=no noticable effect compared to the untreated comparative group; 100%=full effect compared to the untreated comparative group.
(§3) (Notes: the term “seeds” also includes vegetative propagation forms such as, for example, rhizome pieces; abbreviations used: h light=hours of illumination, g of AS/ha=grams of active substance per hectare, l/ha=liter per hectare, S=sensitive, R=resistant) • 1. Pre-emergence action against weeds: seeds of various broad-leaved weed and weed grass biotypes (origins) were sown in a 8-13 cm diameter pot filled with natural soil of a standard field soil (loamy silt; non-sterile) and covered with a covering soil layer of about 1 cm. The pots were then cultivated in a greenhouse (12-16 h light, temperature day 20-22° C., night 15-18° C.) until the time of application. […]

[2] = tested on: Lolium spp. resistant to HRAC group B; experiment: Greenhouse trial, post-emergence action against resistant ryegrass biotype (HRAC group B); type: in vivo; conditions: post-emergence (PO, BBCH 11), about 3 weeks after application
Protocol: as §1, §2, §3

Structure (SMILES): O=C(Nc1ccc(F)cc1)c1cccc(Oc2cccc(C(F)(F)F)c2)n1 [(C) picolinafen, N-(4-fluorophenyl)-6-[3-(trifluoromethyl)phenoxy]-2-pyridinecarboxamide]
- effect (visual scale 0-100% vs untreated) ([1]; 25 g of AS/ha): 10%
- effect (visual scale 0-100% vs untreated) ([2]; 25 g of AS/ha): 5%

Structure (SMILES): Nc1c([N+](=O)[O-])ccc(Oc2ccccc2)c1Cl [(A) aclonifen, 2-chloro-6-nitro-3-phenoxybenzenamine]
- effect (visual scale 0-100% vs untreated) ([1]; 225 g of AS/ha): 25%
- effect (visual scale 0-100% vs untreated) ([2]; 225 g of AS/ha): 50%

Structure (SMILES): Cn1nc(C(F)(F)F)c(CS(=O)(=O)C2=NOC(C)(C)C2)c1OC(F)F [(B) pyroxasulfone, 3-[[[5-(difluoromethoxy)-1-methyl-3-(trifluoromethyl)-1H-pyrazol-4-yl]methyl]sulfonyl]-4,5-dihydro-5,5-dimethylisoxazole]
- effect (visual scale 0-100% vs untreated) ([1]; 13 g of AS/ha): 45%
- effect (visual scale 0-100% vs untreated) ([2]; 13 g of AS/ha): 70%
